Values joined by “and” are separate entries in the source; they are usually repeats but may differ in a detail not shown here. Identical values can stand only once.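 How tested: cells in 96-well plates exposed to compound for 48 hours at five concentrations. GI50 = concentration required for 50% inhibition of growth. TGI: concentration producing complete growth inhibition.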
Tests used:
Assay in all cases: NCI-60 cell line screen, 48 h; in the data active = GI50 below about 0.43 µM; inactive = the rest
[1] = test system: NCI-H23 lung
[2] = test system: SR leukemia
[3] = test system: T-47D breast
[4] = test system: OVCAR-5 ovarian
[5] = test system: MDA-MB-435
[6] = test system: HT29 colon
[7] = test system: BT-549 breast
[8] = test system: U251 CNS
[9] = test system: TK-10 renal
[10] = test system: UO-31 renal
[11] = test system: NCI/ADR-RES ovarian
[12] = test system: MALME-3M melanoma
[13] = test system: SK-OV-3 ovarian
[14] = test system: 786-0 renal
[15] = test system: COLO 205 colon
[16] = test system: OVCAR-8 ovarian
[17] = test system: SF-268 CNS
[18] = test system: OVCAR-3 ovarian
[19] = test system: OVCAR-4 ovarian
[20] = test system: K-562 leukemia
[21] = test system: MDA-N
[22] = test system: SF-295 CNS
[23] = test system: LOX IMVI melanoma
[24] = test system: A549 NSCLC
[25] = test system: MCF7 breast
[26] = test system: M14 melanoma
[27] = test system: MDA-MB-231 breast
[28] = test system: HL-60(TB) leukemia
[29] = test system: SF-539 CNS
[30] = test system: PC-3 prostate
[31] = test system: HOP-62 NSCLC
[32] = test system: NCI-H522 lung
[33] = test system: RXF 393 renal
[34] = test system: NCI-H460 lung
[35] = test system: SK-MEL-5 melanoma
[36] = test system: UACC-62 melanoma
[37] = test system: CAKI-1 renal
[38] = test system: ACHN renal
[39] = test system: SNB-19 CNS
[40] = test system: HCT-15 colon
[41] = test system: EKVX NSCLC
[42] = test system: SK-MEL-2 melanoma
[43] = test system: HCT-116 colon
[44] = test system: SK-MEL-28 melanoma
[45] = test system: HCC-2998 colon
[46] = test system: UACC-257 melanoma
[47] = test system: SN12C renal
[48] = test system: KM12 colon
[49] = test system: HS 578T breast
[50] = test system: MOLT-4 leukemia
[51] = test system: IGROV1 ovarian
[52] = test system: CCRF-CEM leukemia
[53] = test system: NCI-H226 lung
[54] = test system: SNB-75 CNS
[55] = test system: SW-620 colon
[56] = test system: DU-145 prostate
[57] = test system: HOP-92 NSCLC
[58] = test system: RPMI-8226 leukemia
[59] = test system: A498 renal

COCC1OC(S(=O)(=O)c2ccccc2)C(O)C(OC)C1OC (centres undefined)
inactive: GI50 [54] > 100 µM and 12.1 µM
> 100 µM: TGI [1] | TGI [2] | TGI [3] | TGI [4] | TGI [5] | TGI [6] | TGI [7] | TGI [8] | TGI [9] | TGI [10] | TGI [11] | TGI [12] | TGI [13] | TGI [14] | TGI [15] | TGI [16] | TGI [17] | TGI [18] | TGI [19] | TGI [20] | TGI [21] | TGI [22] | TGI [23] | TGI [24] | TGI [25] | TGI [26] | TGI [27] | TGI [28] | TGI [29] | TGI [30] | TGI [31] | TGI [32] | TGI [33] | TGI [34] | TGI [35] | TGI [36] | TGI [37] | TGI [38] | TGI [39] | TGI [40] | TGI [41] | TGI [42] | TGI [43] | TGI [44] | TGI [45] | TGI [46] | TGI [47] | TGI [48] | TGI [49] | TGI [50] | TGI [51] | TGI [52] | TGI [53] | TGI [54] | TGI [55] | TGI [56]

O=CC(O)C(O)C(O)C1CNC(=S)O1 (centres undefined)
> 100 µM: TGI [1] | TGI [2] | TGI [3] | TGI [4] | TGI [5] | TGI [6] | TGI [7] | TGI [8] | TGI [9] | TGI [10] | TGI [11] | TGI [57] | TGI [12] | TGI [13] | TGI [14] | TGI [15] | TGI [16] | TGI [17] | TGI [18] | TGI [19] | TGI [20] | TGI [21] | TGI [22] | TGI [23] | TGI [24] | TGI [25] | TGI [26] | TGI [27] | TGI [28] | TGI [29] | TGI [30] | TGI [31] | TGI [58] | TGI [32] | TGI [33] | TGI [34] | TGI [35] | TGI [36] | TGI [37] | TGI [38] | TGI [40] | TGI [41] | TGI [42] | TGI [43] | TGI [44] | TGI [59] | TGI [46] | TGI [47] | TGI [48] | TGI [49] | TGI [50] | TGI [51] | TGI [52] | TGI [53] | TGI [54] | TGI [55] | TGI [56]

CCCC1C(=O)Nc2cccc3ncn(c23)C1=O (centres undefined)
> 100 µM: TGI [1] | TGI [2] | TGI [3] | TGI [4] | TGI [5] | TGI [6] | TGI [7] | TGI [8] | TGI [10] | TGI [11] | TGI [57] | TGI [12] | TGI [13] | TGI [14] | TGI [15] | TGI [16] | TGI [17] | TGI [18] | TGI [19] | TGI [20] | TGI [21] | TGI [22] | TGI [24] | TGI [25] | TGI [26] | TGI [27] | TGI [28] | TGI [29] | TGI [30] | TGI [31] | TGI [58] | TGI [33] | TGI [34] | TGI [35] | TGI [36] | TGI [37] | TGI [38] | TGI [39] | TGI [40] | TGI [41] | TGI [42] | TGI [43] | TGI [44] | TGI [59] | TGI [46] | TGI [47] | TGI [48] | TGI [49] | TGI [50] | TGI [51] | TGI [52] | TGI [53] | TGI [54] | TGI [55] | TGI [56]

— PubChem BioAssay (NCI)
